{"source": "patent US10626092B2", "about": "“Polymorphic forms of 3-[(2-butyl-1-(2-diethylamino-ethyl)-1H-benzoimidazol-5-yl]-N-hydroxy-acrylamide and uses thereof” (MEI PHARMA, INC., priority 2016, dated 2020)", "type_in_all_cases": "physicochemical", "key": {"[1]": {"assay": "Long-term slurry conversion experiments", "details": "drying the solids under vacuum; converts to 2.5 hydrate Form 3", "procedure": "Approximately 30 mg of the specific form was dosed in a standard HPLC vial and aliquots of 100 μL of solvent until a suspension was formed. […] The solids were isolated from the mother liquor and analyzed by HT-XRPD after mild drying under ambient conditions (ambient) and after thorough drying under vacuum (vacuum). All the solids were exposed to accelerated ageing conditions (2 days at 40° C./70% RH) and re-analyzed by HT-XRPD."}, "[2]": {"assay": "Physical stability under accelerated aging conditions (40° C./70% RH), physical form re-determined by HT-XRPD", "details": "physical stability under accelerated aging conditions (40° C./70% RH) for 48 hours", "procedure": "Solids were analyzed for their physical stability under accelerated aging conditions (40° C./70% RH) for 48 hours. After the exposure, the physical form was determined again by HT-XRPD analysis. The physico-chemical characterization of the forms was done by TGMS analysis to determine the solvation state of the form and thermal events and by DSC analysis to confirm the thermal events observed in the SDTA signal of the TGA. (See Examples for details.)\nSuspensions of 3-[2-butyl-1-(2-diethylamino-ethyl)-1H-benzoimidazol-5-yl]-N-hydroxy-acrylamide dihydrochloride monohydrate (Form 1) and 2.5 hydrate (Form 3) were prepared in 12 process relevant solvent systems. The suspensions were cycled between 5° C. and 50° C. followed by aging at 25° C. for 72 hours. […] Upon completion of the incubation time, the solids were collected, dried under ambient conditions and dried under deep vacuum before being analyzed by HT-XRPD. All the measured solids were exposed to accelerated ageing conditions (2 days at 40° C./70% RH) followed by re-analysis by HT-XRPD.\nLong-term slurry conversion experiments were carried out by preparing suspensions of 3-[2-butyl-1-(2-diethylamino-ethyl)-1H-benzoimidazol-5-yl]-N-hydroxy-acrylamide dihydrochloride 2.5 hydrate (Form 3) and monohydrate (Form 1) in 12 different solvents and solvent mixtures. Approximately 30 mg of the specific form was dosed in a standard HPLC vial and aliquots of 100 μL of solvent until a suspension was formed. The suspensions were stirred for 2 weeks at room temperature and for 1 week at 50° C. The solids were isolated from the mother liquor and analyzed by HT-XRPD after mild drying under ambient conditions (ambient) and after thorough drying under vacuum (vacuum). All the solids were exposed to accelerated ageing conditions (2 days at 40° C./70% RH) and re-analyzed by HT-XRPD.\n(§1) The competitive slurry experiments were performed in ethanol/water mixtures and methanol/water mixtures within a water activity range of 0-0.2. Approximately 50 mg of each pracinostat dihydrochloride solid form 2.5 hydrate and monohydrate were solid dosed in 1.8 mL HPLC vials. Aliquots of 100 μL of the different water mixtures were added until about half of the amount of solid was in solution. Subsequently, the vials were stirred for one week at 5° C., 21° C. and 50° C. Upon completion of the equilibration time, the solids were separated from the liquids by centrifugation. The solids were dried under ambient conditions (ambient) and dried under vacuum (vacuum) before HT-XRPD analysis. All solid samples were exposed to accelerated gaining conditions (40° C. and 70% RH) for two days (AAC). The water content in the liquid phase was determined Karl Fischer analysis."}, "[3]": {"assay": "Thermocycling studies", "procedure": "The suspensions were cycled between 5° C. and 50° C. followed by aging at 25° C. for 72 hours. […] Upon completion of the incubation time, the solids were collected, dried under ambient conditions and dried under deep vacuum before being analyzed by HT-XRPD. All the measured solids were exposed to accelerated ageing conditions (2 days at 40° C./70% RH) followed by re-analysis by HT-XRPD."}, "[4]": {"assay": "Desolvation studies: equilibration at 125° C. in high boiling point solvents", "details": "two days; for Form in Ambient AAC: then accelerated aging conditions", "procedure": "Using solvent equilibration of hydrates in high boiling point solvents has been reported as a method to obtaining desolvated forms. […] The experiments were started with approximately 50 mg of material and 100 μL of solvent. After equilibration, the solids were isolated from the solutions by centrifugation. The solids were allowed to dry under ambient conditions before HT-XRPD analysis was performed. The wet solids were analyzed by HT-XRPD immediately to avoid hydration under ambient conditions or under vacuum."}, "[5]": {"assay": "Variable temperature XRPD", "details": "25° C. to 130° C.", "procedure": "To investigate the phase interconversions upon temperature exposure, a variable temperature XRPD analysis on 3-[2-butyl-1-(2-diethylamino-ethyl)-1H-benzoimidazol-5-yl]-N-hydroxy-acrylamide dihydrochloride 2.5 hydrate was performed. The experiment was run between 25° C. to 130° C. with cooling back to 25° C. at the end. […] After reaching a temperature of 130° C., the material was cooled back to 25° C.\nA variable temperature XRPD experiment with 3-[2-butyl-1-(2-diethylamino-ethyl)-1H-benzoimidazol-5-yl]-N-hydroxy-acrylamide dihydrochloride monohydrate was conducted to investigate the solid form conversion that occurred upon heating. The experiment was run between 25° C. to 143° C. followed by cooling to 25° C., reheating to 155° C. and then cooling again to 25° C. (see FIG. 19).\nFor variable humidity and temperature experiments the ANSYCO HT chamber was used, installed within the D8 Advance system diffractometer (Bruker) designed with Brag-Brentano geometry and equipped with LynxEye solid state detector. The radiation used for collecting the data was CuKα1 (λ=1.54056 Å) monochromatized by germanium crystal. The material was placed on a fixed sample holder that was mounted inside the chamber.\nVT-XRPD: The temperature variation rate was 10° C./min and the equilibration time, prior to starting the data collection at each temperature, was 8 min. The patterns were collected in the range 4-41°2θ, with a step of 0.01573°2θ and measuring time per step of 1 sec. The data collection time, per temperature, was 40 min."}, "[6]": {"assay": "Competitive slurry conversion (thermodynamic stability) of Form 1 and Form 3", "details": "ethanol/water, one week slurry", "procedure": "as §1, with “Approximately 50 mg of each solid form were solid dosed in a standard HPLC vial followed by solvent addition. The competitive” for “The competitive”, “in solution. […] Upon completion” for “in solution. Subsequently, the vials were stirred for one week at 5° C., 21° C. and 50° C. Upon completion”"}, "[7]": {"assay": "Moisture sorption study (DVS analysis)", "details": "DVS; hydrate"}, "[8]": {"assay": "Moisture sorption study (DVS analysis)", "details": "for solid form recovered after DVS: HT-XRPD", "procedure": "A moisture sorption study was performed to investigate the physical stability of 3-[2-butyl-1-(2-diethylamino-ethyl)-1H-benzoimidazol-5-yl]-N-hydroxy-acrylamide dihydrochloride 2.5 hydrate upon exposure to several relative humidity profiles. HT-XRPD analyses were performed on the solid material obtained after the DVS analyses. The analytical method is described herein.\nDifferences in hygroscopicity (moisture uptake) of the various forms of a solid material provided a measure of their relative stability at increasing relative humidity. Moisture sorption isotherms of small samples were obtained using a DVS-1 system from Surface Measurement Systems (London, UK); this instrument is suitable for use with as little as a few milligrams of sample, with an accuracy of 0.1 μg. Several humidity profile were applied as described in each individual experiment. Steps consisted of 10% RH. Weight equilibration per step was set with a minimum holding time of 1 hour (10% relative humidity step). At the end of the DVS experiments, the recovered solid material was measured by HT-XRPD."}, "[9]": {"details": "four sorption-desorption cycles 0-95-0% RH"}}, "note": "Structures can show the parent of a compound that is named as a salt.", "data": [{"smiles": "CCCCc1nc2cc(/C=C/C(=O)NO)ccc2n1CCN(CC)CC", "note": "[Form 2, 3-[2-butyl-1-(2-diethylamino-ethyl)-1H-benzoimidazol-5-yl]-N-hydroxy-acrylamide dihydrochloride trihydrate]", "values": [{"measurement": "physical stability upon drying", "setting": "[1]", "value": "physically unstable"}, {"measurement": "Stability", "setting": "[2]; dihydrochloride trihydrate", "value": "Unstable"}]}, {"smiles": "CCCCc1nc2cc(/C=C/C(=O)NO)ccc2n1CCN(CC)CC", "note": "[Form 3, 3-[2-butyl-1-(2-diethylamino-ethyl)-1H-benzoimidazol-5-yl]-N-hydroxy-acrylamide dihydrochloride 2.5 hydrate]", "values": [{"measurement": "solid form after thermocycling", "setting": "[3]; ethanol, absolute or extra dry, hydrate", "value": "converted to the monohydrate Form 1"}, {"measurement": "solid form after thermocycling", "setting": "[3]; methanol, no water present", "value": "converts to the monohydrate Form 1"}, {"measurement": "relative stability of the form", "setting": "[3]; thermocycling in ethanol/water mixtures", "value": "most stable form in a wide range of ethanol/water mixtures"}, {"measurement": "relative stability of the form", "setting": "[3]; thermocycling in methanol/water mixtures", "value": "most stable form in a wide range of methanol/water mixtures"}, {"measurement": "Form in Ambient", "setting": "[4]; Anisole", "value": "Mono"}, {"measurement": "Form in Ambient AAC", "setting": "[4]; Anisole", "value": 2.5}, {"measurement": "Form in Ambient", "setting": "[4]; Cumene", "value": "Mono"}, {"measurement": "Form in Ambient AAC", "setting": "[4]; Cumene, hydrate", "value": "2.5 + Mono"}, {"measurement": "Form in Ambient", "setting": "[4]; N-Methyl-2-pyrrolidone, hydrate", "value": "Mono"}, {"measurement": "Form in Ambient AAC", "setting": "[4]; N-Methyl-2-pyrrolidone", "value": 2.5}, {"measurement": "Form in Ambient", "setting": "[4]; p-Xylene", "value": "Mono"}, {"measurement": "Form in Ambient AAC", "setting": "[4]; p-Xylene", "value": 2.5}, {"measurement": "temperature at which conversion to a new solid form was initially observed", "setting": "[5]", "value": 60, "unit": "°C"}, {"measurement": "temperature at which conversion to the new solid form was completed", "setting": "[5]", "value": 70, "unit": "°C"}, {"measurement": "temperature at which second conversion (to Form 5) was completed", "setting": "[5]", "value": 110, "unit": "°C"}, {"measurement": "temperature at which second conversion (to Form 5) was observed", "setting": "[5]", "value": 100, "unit": "°C"}, {"measurement": "water content of the solvent system at which the form is the most stable / obtained form", "setting": "[6]; 5° C. (below ambient), hydrate", "value": "above 2%"}, {"measurement": "water content of the solvent system at which the form is the most stable / obtained form", "setting": "[6]; ambient conditions, hydrate", "value": "above 3%"}, {"measurement": "hygroscopicity", "setting": "[7]", "value": "not hygroscopic"}, {"measurement": "solid form recovered after DVS", "setting": "[8]; 0% RH for 18 hours", "value": "converted to a new solid form designated Form 6"}, {"measurement": "hygroscopicity", "setting": "[8]; DVS, hydrate", "value": "non-hygroscopic"}, {"measurement": "gradual loss of water", "setting": "[8]; constant 0% RH for 18 hours, in the first 5 hours", "value": 8, "unit": "%"}, {"measurement": "mass loss at 0% RH", "setting": "[8]; [9]", "value": "about 2%"}, {"measurement": "relative humidity below which the water is gradually lost", "setting": "[8]; [9]", "value": "below 15 % RH"}, {"measurement": "relative humidity values at which the form does not change", "setting": "[8]; [9]", "value": "25-95%"}, {"measurement": "water loss between 5-0% RH", "setting": "[8]; two sorption-desorption cycles 45-95-0-95-0-45% RH", "value": "about 2%"}, {"measurement": "solid form recovered after DVS", "setting": "[8]; two sorption-desorption cycles 45-95-0-95-0-45% RH, hydrate", "value": 2.5, "unit": "hydrate was recovered"}, {"measurement": "Stability", "setting": "[2]; hydrate", "value": "Stable"}]}, {"smiles": "CCCCc1nc2cc(/C=C/C(=O)NO)ccc2n1CCN(CC)CC", "note": "[Form 4, 3-[2-butyl-1-(2-diethylamino-ethyl)-1H-benzoimidazol-5-yl]-N-hydroxy-acrylamide dihydrochloride 1.5 hydrate]", "values": [{"measurement": "Stability", "setting": "[2]; hydrate", "value": "Unstable"}]}, {"smiles": "CCCCc1nc2cc(/C=C/C(=O)NO)ccc2n1CCN(CC)CC", "note": "[Form 5, 3-[2-butyl-1-(2-diethylamino-ethyl)-1H-benzoimidazol-5-yl]-N-hydroxy-acrylamide dihydrochloride]", "values": [{"measurement": "Stability", "setting": "[2]; dihydrochloride", "value": "Unstable"}]}, {"smiles": "CCCCc1nc2cc(/C=C/C(=O)NO)ccc2n1CCN(CC)CC", "note": "[Form 9, 3-[2-butyl-1-(2-diethylamino-ethyl)-1H-benzoimidazol-5-yl]-N-hydroxy-acrylamide dihydrochloride anhydrous]", "values": [{"measurement": "water content of the solvent system at which the form is the most stable form", "setting": "[6]; 50° C. (elevated temperatures)", "value": "below 1.5%"}, {"measurement": "water content of the solvent system at which the form is the most stable / obtained form", "setting": "[6]; ambient conditions", "value": "below 2.5%"}, {"measurement": "Stability", "setting": "[2]", "value": "Unstable"}]}, {"smiles": "CCCCc1nc2cc(/C=C/C(=O)NO)ccc2n1CCN(CC)CC", "note": "[Form 10, 3-[2-butyl-1-(2-diethylamino-ethyl)-1H-benzoimidazol-5-yl]-N-hydroxy-acrylamide dihydrochloride hemihydrate]", "values": [{"measurement": "physical stability under ambient conditions", "setting": "[8]; form appearing at 0% RH, converts to 2.5 hydrate (Form 3)", "value": "physically unstable"}, {"measurement": "Stability", "setting": "[2]; dihydrochloride hemihydrate", "value": "Unstable"}]}]}
